From the kinase profiling compilation of Christmann-Franck et al. (2016)

Each molecule was assayed against MST4 (human) (UniProt Q9P289) (assay: radiometric filter-binding kinase assay, Kinase HotSpot). Details: compound 0.5 µM; ATP 10 µM.
Sequence of MST4 (human) (Q9P289 whole entry, looked up): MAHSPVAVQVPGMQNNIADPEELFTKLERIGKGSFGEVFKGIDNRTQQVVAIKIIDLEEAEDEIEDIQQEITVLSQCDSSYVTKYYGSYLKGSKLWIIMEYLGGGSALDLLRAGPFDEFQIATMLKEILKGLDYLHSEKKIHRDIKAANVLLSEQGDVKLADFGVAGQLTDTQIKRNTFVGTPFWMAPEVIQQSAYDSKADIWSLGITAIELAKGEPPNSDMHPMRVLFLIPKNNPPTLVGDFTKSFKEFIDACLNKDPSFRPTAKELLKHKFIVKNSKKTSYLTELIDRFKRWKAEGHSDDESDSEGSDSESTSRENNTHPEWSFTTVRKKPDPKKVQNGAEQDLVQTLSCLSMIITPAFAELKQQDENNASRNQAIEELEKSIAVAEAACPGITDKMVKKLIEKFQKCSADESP
Work on `O=C(Nc1ccc(Cl)cc1)c1ccccc1NCc1ccncc1` yielded a residual activity of 90.9%. Molecule `O=C1Cc2c([nH]c3ccc([N+](=O)[O-])cc23)-c2ccccc2N1` has a residual activity of 78.6%. For `Cc1ccc(NC(=O)c2ccc(CN3CCN(C)CC3)cc2)cc1Nc1nc(-c2cccnc2)cs1`, the residual activity was 97%.

What follows are molecules tested against NUAK1 (human) (UniProt O60285) in the same assay as above. Details: compound 0.5 µM; ATP 10 µM.
Sequence of NUAK1 (human) (O60285 whole entry, looked up): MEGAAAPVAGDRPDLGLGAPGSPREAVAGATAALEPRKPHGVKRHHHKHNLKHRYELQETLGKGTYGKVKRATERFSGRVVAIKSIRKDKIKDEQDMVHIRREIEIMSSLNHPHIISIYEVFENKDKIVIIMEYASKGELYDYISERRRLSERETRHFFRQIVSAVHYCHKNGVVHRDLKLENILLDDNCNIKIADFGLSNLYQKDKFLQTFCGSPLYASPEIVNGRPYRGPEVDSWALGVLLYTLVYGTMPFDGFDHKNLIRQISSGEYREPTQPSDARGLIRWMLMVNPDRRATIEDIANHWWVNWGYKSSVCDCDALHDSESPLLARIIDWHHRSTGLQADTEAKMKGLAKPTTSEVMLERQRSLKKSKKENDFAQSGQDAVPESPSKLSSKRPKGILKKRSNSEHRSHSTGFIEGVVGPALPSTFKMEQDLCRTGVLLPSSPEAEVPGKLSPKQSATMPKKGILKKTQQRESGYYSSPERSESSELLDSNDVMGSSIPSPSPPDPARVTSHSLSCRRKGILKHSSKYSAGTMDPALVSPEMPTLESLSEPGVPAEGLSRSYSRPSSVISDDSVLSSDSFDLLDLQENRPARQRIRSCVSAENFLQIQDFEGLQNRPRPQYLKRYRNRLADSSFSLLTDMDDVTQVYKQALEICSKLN
With `O=C(Nc1ccc(Cl)cc1)c1ccccc1NCc1ccncc1` the residual activity was 96.5%. Work on `O=C1Cc2c([nH]c3ccc([N+](=O)[O-])cc23)-c2ccccc2N1` yielded a residual activity of 12%. Molecule `Cc1ccc(NC(=O)c2ccc(CN3CCN(C)CC3)cc2)cc1Nc1nc(-c2cccnc2)cs1` has a residual activity of 110%. With `O=C1Nc2ccccc2/C1=C\c1c(Cl)[nH]c2ccccc12` the residual activity was 86%.

The molecules below were run against PAK6 (human) (UniProt Q9NQU5) in the same assay as above. Details: compound 0.5 µM; ATP 10 µM.
Sequence of PAK6 (human) (Q9NQU5 whole entry, looked up): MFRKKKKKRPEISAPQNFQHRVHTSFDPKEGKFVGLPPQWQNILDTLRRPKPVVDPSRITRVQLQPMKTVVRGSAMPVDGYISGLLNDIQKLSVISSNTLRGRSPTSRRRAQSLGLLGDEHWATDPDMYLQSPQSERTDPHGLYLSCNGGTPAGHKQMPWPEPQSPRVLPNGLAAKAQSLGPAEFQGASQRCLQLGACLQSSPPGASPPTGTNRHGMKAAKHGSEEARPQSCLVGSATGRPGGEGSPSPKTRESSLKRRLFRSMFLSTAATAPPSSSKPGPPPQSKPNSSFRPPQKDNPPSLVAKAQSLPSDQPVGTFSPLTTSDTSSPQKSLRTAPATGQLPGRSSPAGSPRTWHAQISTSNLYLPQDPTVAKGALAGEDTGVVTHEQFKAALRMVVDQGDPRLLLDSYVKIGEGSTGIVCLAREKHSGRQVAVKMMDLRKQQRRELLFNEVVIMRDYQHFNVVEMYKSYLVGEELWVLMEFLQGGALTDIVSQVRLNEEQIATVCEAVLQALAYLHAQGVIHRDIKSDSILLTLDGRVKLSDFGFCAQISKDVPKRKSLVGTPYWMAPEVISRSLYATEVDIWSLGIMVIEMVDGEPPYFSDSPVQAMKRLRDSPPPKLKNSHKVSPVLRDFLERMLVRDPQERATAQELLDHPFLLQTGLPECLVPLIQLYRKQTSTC
Work on `O=C(Nc1ccc(Cl)cc1)c1ccccc1NCc1ccncc1` yielded a residual activity of 101%. `O=C1Cc2c([nH]c3ccc([N+](=O)[O-])cc23)-c2ccccc2N1` gave a residual activity of 101%. With `Cc1ccc(NC(=O)c2ccc(CN3CCN(C)CC3)cc2)cc1Nc1nc(-c2cccnc2)cs1` the residual activity was 101%. For `O=C1Nc2ccccc2/C1=C\c1c(Cl)[nH]c2ccccc12`, the residual activity was 101%.

What follows are molecules tested against PIM2 (human) (UniProt Q9P1W9) in the same assay as above. Details: compound 0.5 µM; ATP 10 µM.
Sequence of PIM2 (human) (Q9P1W9 whole entry, looked up): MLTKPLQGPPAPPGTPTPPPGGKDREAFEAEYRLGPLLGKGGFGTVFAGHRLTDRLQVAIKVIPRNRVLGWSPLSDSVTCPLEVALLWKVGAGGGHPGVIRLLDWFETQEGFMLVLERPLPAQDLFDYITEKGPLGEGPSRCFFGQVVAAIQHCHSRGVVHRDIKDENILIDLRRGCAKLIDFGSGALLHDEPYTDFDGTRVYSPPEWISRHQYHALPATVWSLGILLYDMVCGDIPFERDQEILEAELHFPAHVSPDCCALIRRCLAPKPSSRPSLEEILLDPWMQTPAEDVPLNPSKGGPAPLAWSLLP
Work on `O=C(Nc1ccc(Cl)cc1)c1ccccc1NCc1ccncc1` yielded a residual activity of 99.5%. `O=C1Cc2c([nH]c3ccc([N+](=O)[O-])cc23)-c2ccccc2N1` gave a residual activity of 113%. `Cc1ccc(NC(=O)c2ccc(CN3CCN(C)CC3)cc2)cc1Nc1nc(-c2cccnc2)cs1` showed a residual activity of 118%. For `O=C1Nc2ccccc2/C1=C\c1c(Cl)[nH]c2ccccc12`, the residual activity was 106%.

The molecules below were run against PKN1 (human) (UniProt Q16512) in the same assay as above. Details: compound 0.5 µM; ATP 10 µM.
With `O=C(Nc1ccc(Cl)cc1)c1ccccc1NCc1ccncc1` the residual activity was 95.2%. `O=C1Cc2c([nH]c3ccc([N+](=O)[O-])cc23)-c2ccccc2N1` gave a residual activity of 88.2%. With `Cc1ccc(NC(=O)c2ccc(CN3CCN(C)CC3)cc2)cc1Nc1nc(-c2cccnc2)cs1` the residual activity was 99.3%. `O=C1Nc2ccccc2/C1=C\c1c(Cl)[nH]c2ccccc12` gave a residual activity of 94.6%.

What follows are molecules tested against PRKCB1 (human) (UniProt P05771) in the same assay as above. Details: compound 0.5 µM; ATP 10 µM.
Sequence of PRKCB1 (human) (P05771 whole entry, looked up): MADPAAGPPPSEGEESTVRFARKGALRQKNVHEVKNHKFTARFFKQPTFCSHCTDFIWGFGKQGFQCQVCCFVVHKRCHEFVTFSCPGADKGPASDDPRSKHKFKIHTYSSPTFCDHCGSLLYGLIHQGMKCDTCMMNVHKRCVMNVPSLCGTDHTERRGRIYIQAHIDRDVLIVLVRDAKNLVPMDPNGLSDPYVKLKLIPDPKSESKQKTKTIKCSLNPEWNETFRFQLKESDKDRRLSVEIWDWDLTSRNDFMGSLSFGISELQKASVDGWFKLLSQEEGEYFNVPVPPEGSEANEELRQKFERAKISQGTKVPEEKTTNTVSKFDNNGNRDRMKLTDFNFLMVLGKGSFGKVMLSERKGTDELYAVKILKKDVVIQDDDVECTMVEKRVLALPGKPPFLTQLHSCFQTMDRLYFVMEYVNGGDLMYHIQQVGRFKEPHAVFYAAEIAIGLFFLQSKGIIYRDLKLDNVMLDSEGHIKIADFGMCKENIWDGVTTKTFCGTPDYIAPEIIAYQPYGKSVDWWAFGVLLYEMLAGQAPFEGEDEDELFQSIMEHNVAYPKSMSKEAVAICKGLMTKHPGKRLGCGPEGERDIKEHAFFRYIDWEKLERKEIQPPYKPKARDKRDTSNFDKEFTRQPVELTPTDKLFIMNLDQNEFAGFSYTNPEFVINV
For `O=C(Nc1ccc(Cl)cc1)c1ccccc1NCc1ccncc1`, the residual activity was 98.1%. `O=C1Cc2c([nH]c3ccc([N+](=O)[O-])cc23)-c2ccccc2N1` showed a residual activity of 105%. Work on `Cc1ccc(NC(=O)c2ccc(CN3CCN(C)CC3)cc2)cc1Nc1nc(-c2cccnc2)cs1` yielded a residual activity of 101%. `O=C1Nc2ccccc2/C1=C\c1c(Cl)[nH]c2ccccc12` showed a residual activity of 105%.

What follows are molecules tested against PRKCI (human) (UniProt P41743) in the same assay as above. Details: compound 0.5 µM; ATP 10 µM.
Sequence of PRKCI (human) (P41743 whole entry, looked up): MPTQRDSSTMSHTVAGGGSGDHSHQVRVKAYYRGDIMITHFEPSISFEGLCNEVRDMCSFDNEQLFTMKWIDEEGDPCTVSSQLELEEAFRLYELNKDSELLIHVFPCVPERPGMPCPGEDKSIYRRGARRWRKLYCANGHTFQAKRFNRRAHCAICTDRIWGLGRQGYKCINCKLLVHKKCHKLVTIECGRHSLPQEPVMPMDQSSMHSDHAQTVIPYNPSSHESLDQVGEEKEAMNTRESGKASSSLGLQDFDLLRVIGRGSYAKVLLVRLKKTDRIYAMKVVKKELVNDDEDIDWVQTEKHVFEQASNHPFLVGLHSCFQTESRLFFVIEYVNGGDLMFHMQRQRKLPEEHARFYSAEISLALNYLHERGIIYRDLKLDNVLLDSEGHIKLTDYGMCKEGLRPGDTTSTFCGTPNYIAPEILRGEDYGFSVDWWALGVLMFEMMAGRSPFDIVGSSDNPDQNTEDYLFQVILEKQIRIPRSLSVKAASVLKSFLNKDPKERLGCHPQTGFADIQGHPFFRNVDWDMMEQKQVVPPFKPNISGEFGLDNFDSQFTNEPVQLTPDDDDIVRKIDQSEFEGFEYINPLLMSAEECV
For `O=C(Nc1ccc(Cl)cc1)c1ccccc1NCc1ccncc1`, the residual activity was 98.7%. Molecule `O=C1Cc2c([nH]c3ccc([N+](=O)[O-])cc23)-c2ccccc2N1` has a residual activity of 83.3%. `Cc1ccc(NC(=O)c2ccc(CN3CCN(C)CC3)cc2)cc1Nc1nc(-c2cccnc2)cs1` showed a residual activity of 93.7%. For `O=C1Nc2ccccc2/C1=C\c1c(Cl)[nH]c2ccccc12`, the residual activity was 99.2%.

Each molecule was assayed against PRKD1 (human) (UniProt Q15139) in the same assay as above. Details: compound 0.5 µM; ATP 10 µM.
`O=C(Nc1ccc(Cl)cc1)c1ccccc1NCc1ccncc1` showed a residual activity of 93.2%. With `O=C1Cc2c([nH]c3ccc([N+](=O)[O-])cc23)-c2ccccc2N1` the residual activity was 95.6%. `Cc1ccc(NC(=O)c2ccc(CN3CCN(C)CC3)cc2)cc1Nc1nc(-c2cccnc2)cs1` was tested, and the residual activity was 98.2%. Molecule `O=C1Nc2ccccc2/C1=C\c1c(Cl)[nH]c2ccccc12` has a residual activity of 89.5%.

These molecules were tested against PTK2 (human) (UniProt Q05397) in the same assay as above. Details: compound 0.5 µM; ATP 10 µM.
Sequence of PTK2 (human) (Q05397 whole entry, looked up): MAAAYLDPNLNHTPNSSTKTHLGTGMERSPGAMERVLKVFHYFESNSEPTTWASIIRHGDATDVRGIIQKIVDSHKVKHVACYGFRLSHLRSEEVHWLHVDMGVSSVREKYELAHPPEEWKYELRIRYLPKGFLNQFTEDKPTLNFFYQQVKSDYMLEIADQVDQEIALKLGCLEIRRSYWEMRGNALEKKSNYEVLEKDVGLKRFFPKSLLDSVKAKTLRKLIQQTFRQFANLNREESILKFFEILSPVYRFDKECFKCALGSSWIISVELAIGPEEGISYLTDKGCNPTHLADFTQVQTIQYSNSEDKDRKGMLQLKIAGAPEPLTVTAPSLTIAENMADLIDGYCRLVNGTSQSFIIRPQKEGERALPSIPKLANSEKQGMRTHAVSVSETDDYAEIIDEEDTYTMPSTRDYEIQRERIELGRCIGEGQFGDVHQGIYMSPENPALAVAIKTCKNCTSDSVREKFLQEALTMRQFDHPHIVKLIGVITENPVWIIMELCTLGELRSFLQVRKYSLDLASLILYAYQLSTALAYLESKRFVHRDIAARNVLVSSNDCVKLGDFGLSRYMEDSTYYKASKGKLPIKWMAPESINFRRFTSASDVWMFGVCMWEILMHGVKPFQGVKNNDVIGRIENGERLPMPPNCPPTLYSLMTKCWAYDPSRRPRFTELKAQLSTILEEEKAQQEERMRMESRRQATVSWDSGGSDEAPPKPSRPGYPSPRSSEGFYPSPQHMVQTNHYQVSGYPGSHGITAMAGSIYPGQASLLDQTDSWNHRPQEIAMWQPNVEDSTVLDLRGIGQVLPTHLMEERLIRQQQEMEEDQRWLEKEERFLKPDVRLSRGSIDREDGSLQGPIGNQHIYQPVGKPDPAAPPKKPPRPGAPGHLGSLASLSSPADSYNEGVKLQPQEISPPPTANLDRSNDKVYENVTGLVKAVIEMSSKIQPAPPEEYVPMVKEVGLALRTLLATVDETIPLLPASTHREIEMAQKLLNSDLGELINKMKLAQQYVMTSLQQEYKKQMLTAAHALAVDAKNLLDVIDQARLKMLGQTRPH
With `O=C(Nc1ccc(Cl)cc1)c1ccccc1NCc1ccncc1` the residual activity was 95.7%. With `O=C1Cc2c([nH]c3ccc([N+](=O)[O-])cc23)-c2ccccc2N1` the residual activity was 88.1%. Molecule `Cc1ccc(NC(=O)c2ccc(CN3CCN(C)CC3)cc2)cc1Nc1nc(-c2cccnc2)cs1` has a residual activity of 98.6%. In the case of `O=C1Nc2ccccc2/C1=C\c1c(Cl)[nH]c2ccccc12`, the residual activity is reported as 101%.

What follows are molecules tested against RAF1 (human) (UniProt P04049) in the same assay as above. Details: compound 0.5 µM; ATP 10 µM.
Sequence of RAF1 (human) (P04049 whole entry, looked up): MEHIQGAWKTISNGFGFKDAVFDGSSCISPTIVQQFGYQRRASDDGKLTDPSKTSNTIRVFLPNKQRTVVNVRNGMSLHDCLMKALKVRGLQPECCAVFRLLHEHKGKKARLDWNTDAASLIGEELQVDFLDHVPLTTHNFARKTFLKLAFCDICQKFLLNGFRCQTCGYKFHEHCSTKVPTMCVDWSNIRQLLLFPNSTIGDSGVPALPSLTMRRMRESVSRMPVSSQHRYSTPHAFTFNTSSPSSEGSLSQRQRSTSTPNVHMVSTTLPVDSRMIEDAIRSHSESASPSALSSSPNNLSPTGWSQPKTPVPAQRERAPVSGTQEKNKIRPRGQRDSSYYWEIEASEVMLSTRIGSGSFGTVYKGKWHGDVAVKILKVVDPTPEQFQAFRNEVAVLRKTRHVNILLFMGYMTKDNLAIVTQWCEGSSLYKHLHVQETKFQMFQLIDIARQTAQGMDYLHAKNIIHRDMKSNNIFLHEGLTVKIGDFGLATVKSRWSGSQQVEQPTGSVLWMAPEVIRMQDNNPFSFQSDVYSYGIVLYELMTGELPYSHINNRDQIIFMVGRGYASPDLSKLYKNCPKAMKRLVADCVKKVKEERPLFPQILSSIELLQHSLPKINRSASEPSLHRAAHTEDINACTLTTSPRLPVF
Molecule `O=C(Nc1ccc(Cl)cc1)c1ccccc1NCc1ccncc1` has a residual activity of 62.6%. With `O=C1Cc2c([nH]c3ccc([N+](=O)[O-])cc23)-c2ccccc2N1` the residual activity was 114%. In the case of `Cc1ccc(NC(=O)c2ccc(CN3CCN(C)CC3)cc2)cc1Nc1nc(-c2cccnc2)cs1`, the residual activity is reported as 77.5%. `O=C1Nc2ccccc2/C1=C\c1c(Cl)[nH]c2ccccc12` was tested, and the residual activity was 89.9%.

Each molecule was assayed against RPS6KA5 KD2 (human) (UniProt O75582) in the same assay as above. Details: compound 0.5 µM; ATP 10 µM.
Work on `O=C(Nc1ccc(Cl)cc1)c1ccccc1NCc1ccncc1` yielded a residual activity of 92.5%. `O=C1Cc2c([nH]c3ccc([N+](=O)[O-])cc23)-c2ccccc2N1` showed a residual activity of 107%.
